Tests used:
Hepatitis B virus [1] = experiment: Antiviral activity against hepatitis B virus infected in human assessed as log reduction in viral titer per ml of serum at 30 mg, po qd for 4 weeks; assay type: functional
Homo sapiens [2] = experiment: Toxicity in chronic hepatitis B virus infected patient assessed as serum ALT level at 120 mg, po qd for 4 weeks by LC-MS analysis; assay type: organism-based; details: in vivo, 672 h
Homo sapiens [3] = experiment: Toxicity in chronic hepatitis B virus infected patient assessed as serum ALT level at 30 mg, po qd for 4 weeks by LC-MS analysis; assay type: organism-based; details: in vivo, 672 h
Hepatitis B virus [4] = experiment: Antiviral activity against hepatitis B virus infected in human assessed as log reduction in viral titer per ml of serum at 240 mg, po qd for 4 weeks; assay type: functional
Homo sapiens [5] = experiment: Toxicity in chronic hepatitis B virus infected patient assessed as serum ALT level at 60 mg, po qd for 4 weeks by LC-MS analysis; assay type: organism-based; details: in vivo, 672 h
Homo sapiens [6] = experiment: Toxicity in chronic hepatitis B virus infected patient assessed as serum ALT level at 240 mg, po qd for 4 weeks by LC-MS analysis; assay type: organism-based; details: in vivo, 672 h

Compound CC(C)(C)C(=O)OCOP(=O)(COC1(Cn2cnc3cnc(N)nc32)CC1)OCOC(=O)C(C)(C)C [LB80380] has an FC (Hepatitis B virus [1]) of 3.02, an Activity (Homo sapiens [2]) of 34.5 U/L and an Activity (Homo sapiens [3]) of 79.5 U/L. For the same compound, the FC (Hepatitis B virus [4]) was 3.8, the Activity (Homo sapiens [5]) was 68.7 U/L and the Activity (Homo sapiens [6]) was 27 U/L.

From ChEMBL document CHEMBL1649179, “Pharmacokinetics of LB80331 and LB80317 following oral administration of LB80380, a new antiviral agent for chronic hepatitis B (CHB), in healthy adult subjects, CHB patients, and mice” (Antimicrob Agents Chemother, 2009)
